The values below come from PubChem BioAssay AID624439 (The Scripps Research Institute Molecular Screening Center, 2012).

Each structure is given as a SMILES string. Calls of active or inactive are those of the source.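 Rule for the calls: active = compounds with an IC50 below 50 µM against the phosphatase; inactive = IC50 at 50 µM or above.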

The test concerns the target Serine/threonine-protein phosphatase 5 (Homo sapiens) (UniProt P53041). The experiment in a line: inhibition of PP5 catalytic domain, physiologic substrate – biochemical, radiolabeled phosphohistone, dose response, round 5, orthogonal assay, late-stage follow-up (AID 624439). To be noted: purified PP5c, 33P-phosphohistone dephosphorylation, scintillation.

Serine/threonine-protein phosphatase 5 (Homo sapiens), sequence (P53041 whole entry, looked up, the tested form may be a part): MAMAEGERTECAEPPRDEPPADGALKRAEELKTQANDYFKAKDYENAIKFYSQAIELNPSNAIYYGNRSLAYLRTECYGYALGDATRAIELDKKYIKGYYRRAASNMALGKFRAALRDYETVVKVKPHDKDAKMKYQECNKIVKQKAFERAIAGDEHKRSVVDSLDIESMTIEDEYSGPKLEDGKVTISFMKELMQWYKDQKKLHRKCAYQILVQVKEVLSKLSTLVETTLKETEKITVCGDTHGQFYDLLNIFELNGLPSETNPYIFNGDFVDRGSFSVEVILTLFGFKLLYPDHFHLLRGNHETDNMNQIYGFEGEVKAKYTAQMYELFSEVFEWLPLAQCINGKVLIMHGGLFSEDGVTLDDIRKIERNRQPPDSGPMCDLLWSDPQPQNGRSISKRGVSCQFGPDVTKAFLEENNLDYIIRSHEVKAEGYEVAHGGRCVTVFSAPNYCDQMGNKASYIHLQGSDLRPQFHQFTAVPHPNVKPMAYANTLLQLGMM

`O=C(O)c1n[nH]nc1-c1ccccc1F`: the IC50 is 42.2 µM.
Next, `O=C(O)c1n[nH]nc1-c1ccccc1O`: 31.4 µM.
Next, `O=C(O)c1n[nH]nc1-c1cccc(F)c1`: “inactive”.
To `O=C(O)c1n[nH]nc1-c1ccc(F)cc1` belongs “inactive”; to `COc1ccc(-c2n[nH]nc2C(=O)O)cc1`, “inactive”; to `COc1ccccc1-c1n[nH]nc1C(=O)O`, 29.7 µM.
As to `COc1cccc(-c2n[nH]nc2C(=O)O)c1`, the concentration for half-maximal inhibition (IC50) is 49 µM.
To `CC(C)Oc1ccccc1-c1n[nH]nc1C(=O)O` belongs 17.1 µM.
